# Measurements as given in PMC11035632, “Discovery of gefitinib-1,2,3-triazole derivatives against lung cancer via inducing apoptosis and inhibiting the colony formation” (Scientific Reports, 2024).
# Columns and labels:
# H1299 cells [1] = assay: Wound healing assay; type: cell-based, human; details: 24 h
# Protocol: H1299 cells were seeded in a 6-well plate, When the cell confluency reached 95%, a wound line was scratched using a 200 µl pipette tip, and then washed three times, fresh medium containing 7a or 7j (2, 4 and 8 μmol/L) was added, and the plate was incubated at 37 °C with 5% CO2. All the images were captured at 0 h and 24 h under an inverted microscope, and the quantification of scratches was analysed using Image J.
# A549 cells = assay: CCK-8 assay for cell proliferation and cytotoxicity, A549; type: cell-based; details: Homo sapiens, CCK-8, 48 h
# Protocol: A549 cells were cultured in a humidified incubator at 37 °C with 5% CO2 in Ham’s F-12 K (PM150910, Procell) supplemented with 10% FBS and 1% Penicillin Streptomycin.
# Three types of lung cells were seeded into 96-well plate at a density of 5 × 10^3 cells per well at logarithmic growth phase and cultured in 37 °C. […] After that, cell viability was determined according to the instruction of the CCK-8 assay. Next, 10 μL of CCK-8 solution was added to each well of the plate and incubate the plate for 1–4 h in the incubator. The absorbance was measured at 450 nm using a microplate reader (Bio-Tek). The percentage of viable cells was measured using the following formula where three independent experiments were performed: [(A450 sample − A450blank)/(A450 control − A450blank)] × 100%.
# H1299 cells [2] = assay: Transwell migration assay; type: cell-based, human; details: H1299, 2, 4 and 8 μmol/L, 24 h, vs normal control, p < 0.01
# Protocol: Transwell chamber migration assay is another important method to assess cell migration ability. Tumor cells are seeded in the chamber, and the number of tumor cells that pass through the membrane is counted to evaluate the migration ability of tumor cells.
# Transwell assay was used to determine the migration ability of H1299 cells. Cells were starved in serum-free RPMI 1640 medium for 24 h, then detached and resuspended in serum-free RPMI 1640 medium. 5 × 10^5 cells/mL were inoculated into the upper chamber of a 24-well Transwell plate (Corning Inc., United States), with a volume of 100 µl per well. Then, 100 µL serum-free medium containing 7a or 7j (2, 4 and 8 μmol/L) was added to the upper chamber and the lower chamber was filled with 700 µL medium containing 20% FBS. After incubation for 24 h, H1299 cells on the upper membrane of the transwell were wiped off. The migrated cells were treated with 4% paraformaldehyde for 20 min, stained with 0.1% crystal violet for 20 min and washed three times with PBS. The number of H1299 cells that migrated to the underside of the membrane was counted under the inverted fluorescence microscope. Three randomly selected areas from each transwell were photographed and calculated using Image J.
# L02 cells = assay: Cytotoxicity / survival rate in normal hepatocytes L02; type: cell-based; details: for Survival rate %, 48 h: L02 cells
compound,measurement,setting,value
COc1cc2ncnc(Nc3cccc(-c4cn(Cc5cc(F)ccc5Br)nn4)c3)c2cc1OCCCN1CCOCC1 [Compound 7a],migration closure rate,"H1299 cells [1]; H1299, 2 μmol/L",65.16 ± 7.88%
same,migration closure rate,"H1299 cells [1]; H1299, 4 μmol/L",50.12 ± 2.99%
same,migration closure rate,"H1299 cells [1]; H1299, 8 μmol/L",23.54 ± 3.65%
same,IC50,A549 cells,3.16 ± 0.11 µM
same,number of cells passing through the membrane to the lower surface of the chamber,H1299 cells [2],significantly decreased
same,IC50,"L02 cells; Homo sapiens, normal hepatocytes L02",18.9 ± 1.03 µM
same,"Survival rate %, 48 h",L02 cells; 2 μM,95.37 ± 2.98%
same,"Survival rate %, 48 h",L02 cells; 4 μM,71.97 ± 2.33%
same,"Survival rate %, 48 h",L02 cells; 8 μM,66.89 ± 1.52%
same,"Survival rate %, 48 h",L02 cells; 16 μM,63.25 ± 1.25%
same,"Survival rate %, 48 h",L02 cells; 32 μM,32.43 ± 0.95%
